Test results published in patent publication US20070270436A1, “NOVEL AMINO- AND IMINO-ALKYLPIPERAZINES” (Recordati Ireland Limited, priority 2006, published 2007).

Columns and labels:
[1] = system: rhythmic bladder-voiding contractions; test: Rhythmic bladder-voiding contractions induced by bladder filling in anaesthetised rats; type: in vivo, rat; settings: intravenous administration
Description: Female Sprague-Dawley rats weighing 225-275 g (Crl: CD® (SD) IGS BR, Charles River Italia) were used. The animals were housed with free access to food and water and maintained on a forced 12-hour alternating light-dark cycle at 22-24° C. for at least one week, except during the experiment. The activity on rhythmic bladder voiding contractions was evaluated according to the method of Dray (Dray J., Pharmacol. Methods, 13:157, 1985), with some modifications as in Guarneri (Guarneri, Pharmacol. Res. 27:173, 1993). Briefly, the rats were anaesthetised by subcutaneous injection of 1.25 g/kg (5 ml/kg) urethane, after which the urinary bladder was catheterised via the urethra using PE 50 polyethylene tubing filled with physiological saline. The catheter was tied in place with a ligature around the external urethral orifice and was connected to conventional pressure transducers (Statham P23 ID/P23 XL). […] The bladder was then filled via the recording catheter by incremental volumes of warm (37° C.) saline until reflex bladder-voiding contractions occurred (usually 0.8-1.5 ml). For intravenous injection of bioactive compounds, PE 50 polyethylene tubing filled with physiological saline was inserted into the jugular vein.
From the cystometrogram, the number of contractions recorded 15 minutes before (basal values) and after treatment, as well as the mean amplitude of these contractions (mean height of the peaks in mmHg), was evaluated.
Since most compounds produced an effect that was relatively rapid in onset and led to a complete cessation of bladder contractions, bioactivity was conveniently estimated by measuring the duration of bladder quiescence (i.e., the time during which no contractions occurred). The number of tested animals showing a reduction in the number of contractions higher than 30% of that observed in the basal period was recorded too.
The extrapolated doses which induced a reduction in the number of contractions greater than 30% in 50% of the treated rats (ED50) were also evaluated by the method of Bliss (Bliss C. I., Quart J. Pharm. Pharmacol. 11, 192-216, 1938).

[2] = system: urinary bladder; test: Cystometric parameters in conscious rats after oral administration; type: in vivo, rat; settings: 3 mg/kg p.o., 1-5 h after treatment
Description: Male Sprague-Dawley rats [Crl: CD® (SD) IGS BR] of 300-400 g body weight supplied by Charles River Italia were used. The animals were housed with free access to food and water and maintained on a forced 12-hour-light/12-hour-dark cycle at 22-24° C. of temperature, except during the experiment. To quantify urodynamic parameters in conscious rats, cystometrographic studies were performed according to the procedure previously reported (Guarneri et al., Pharmacol. Res. 24: 175, 1991).
Briefly, the rats were anaesthetised by intraperitoneal administration of 3 ml/kg of Equithensin solution (pentobarbital 30 mg/kg and chloral hydrate 125 mg/kg) and placed in a supine position. An approximately 10 mm-long midline incision was made in the shaved and cleaned abdominal wall. The urinary bladder was gently freed from adhering tissues, emptied and then cannulated via an incision in the bladder body, using a polyethylene cannula (0.58-mm internal diameter, 0.96-mm external diameter) which was permanently sutured with silk thread. The cannula was exteriorised through a subcutaneous tunnel in the retroscapular area, where it was connected to a plastic adapter in order to avoid the risk of removal by the animal. For drug testing, the rats were utilised one day after implantation.
On the day of the experiment, the rats were placed in modified Bollman cages, i.e., restraining cages that were large enough to permit the rats to adopt a normal crouched posture, but narrow enough to prevent turning around. After a stabilisation period of about 20 minutes, the free tip of the bladder cannula was connected through a T-shaped tube to a pressure transducer (Statham P23XL) and to a peristaltic pump (Gilson minipuls 2) for continues infusion of a warm (37° C.) saline solution into the urinary bladder, at a constant rate of 0.1 ml/minute. The intraluminal-pressure signal during infusion of saline into the bladder was continuously recorded on a polygraph (Rectigraph-8K San-ei with BM614/2 amplifier from Biomedica Mangoni). The cystometrogram was used to evaluate the urodynamic parameters of bladder volume capacity (BVC) and micturition pressure (MP). BVC (ml) is defined as the volume of saline infused into the bladder necessary to induce detrusor contraction followed by micturition. MP (mmHg) is defined as the maximal intravesical pressure caused by contraction during micturition. Basal BVC and MP values were evaluated as mean of the values observed in the cystometrograms recorded in an initial period of 30-60 minutes. Following determination of basal BVC and MP, the infusion was interrupted and the test compounds were administered orally by a stomach tube. Bladder infusion was resumed and changes in BVC and MP were evaluated from the mean values obtained in the cystometrograms observed during 1, 2, 3, 4 and 5 hours after treatment. Compounds were administered in a volume of 2 ml/kg and groups of control animals received the same amount of vehicle (0.5% methocel in water) orally.
Data were expressed as mean ±standard error. The percent changes of BVC and MP versus the basal values, as well as Δ values (difference in ml or mmHg) of BVC and MP (BVC or MP at time “x” minus basal value), were also evaluated for each rat/time. In the figures, data were reported as % changes versus basal values.
Statistical analysis on BVC and MP values, as well as on Δ values, was performed by S.A.S./STAT software, version 6.12. The observed differences between vehicle (control) and test treatments were evaluated on Δ values of BVC and MP, whereas the differences between the values at different times versus basal values were analyzed on original BVC and MP data.

COc1ccccc1N1CCN(CCC(c2ccccc2F)C(C2CCCCC2)N(C)C(C)=O)CC1 (racemic) [Example 16, (RS,SR)- and (RS,RS)-N-{-1-Cyclohexyl-2-(2-fluorophenyl)-4-[4-(2-methoxyphenyl)piperazin-1-yl]butyl}-N-methylacetamide]
ED50 (frequency) (extrapolated dose inducing a reduction of the number of contractions >30% in 50% of treated rats) [1]: 0.031 mg/kg
ED10 min (extrapolated dose inducing 10 minutes of disappearance of the contractions) [1]: 0.072 mg/kg
bladder volume capacity (BVC) [2]: effective in increasing
micturition pressure (MP) [2]: without significant effects

COc1ccccc1N1CCN(CC[C@@H](c2ccccc2F)[C@H](NC(=S)N(C)C)C2CCCCC2)CC1 (racemic) [Example 24, 3-{(RS,SR)-1-Cyclohexyl-2-(2-fluorophenyl)-4-[4-(2-methoxyphenyl)-piperazin-1-yl]butyl}-1,1-dimethylthiourea]
bladder volume capacity (BVC) [2]: significantly increased
micturition pressure (MP) [2]: slight but significant reduction
